Reference: paper PMC9597875 (Frontiers in Pharmacology, 2022)

Tests used:
CYP2D6 [1] = biological target: T1, CYP2D6 (Homo sapiens, UniProt P10635); settings: HLM; as compared to quinidine
CYP2D6 [2] = biological target: T1, CYP2D6; experiment: biochemical
CYP3A4 = CYP3A4 (Homo sapiens, UniProt P08684); experiment: CYP3A4 activity inhibition assay in human liver microsomes (testosterone 6β-hydroxylation, LC-MS/MS)
CYP2C8 = biological target: T2, CYP2C8 (Homo sapiens, UniProt P10632); experiment: CYP2C8 activity inhibition assay in human liver microsomes (paclitaxel hydroxylation, LC-MS/MS); settings: for IC50: IC50 CYP2C8, HLM, paclitaxel 5 µM
T2 sequence (P10632 1-490): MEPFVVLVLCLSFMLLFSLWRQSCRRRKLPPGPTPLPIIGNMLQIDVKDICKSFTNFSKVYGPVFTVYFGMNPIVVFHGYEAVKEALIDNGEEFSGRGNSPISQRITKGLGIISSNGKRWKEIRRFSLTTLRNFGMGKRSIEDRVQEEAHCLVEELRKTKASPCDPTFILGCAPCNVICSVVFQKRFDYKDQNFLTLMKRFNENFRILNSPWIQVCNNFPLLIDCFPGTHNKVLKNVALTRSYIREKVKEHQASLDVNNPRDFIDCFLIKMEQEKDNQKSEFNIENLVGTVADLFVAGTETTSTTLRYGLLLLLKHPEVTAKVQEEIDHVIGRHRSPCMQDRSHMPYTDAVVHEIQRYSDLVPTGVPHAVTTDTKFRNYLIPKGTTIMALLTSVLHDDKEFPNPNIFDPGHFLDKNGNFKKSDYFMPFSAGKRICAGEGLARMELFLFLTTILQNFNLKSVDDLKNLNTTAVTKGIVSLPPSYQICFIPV

T1 sequence (P10635 whole entry): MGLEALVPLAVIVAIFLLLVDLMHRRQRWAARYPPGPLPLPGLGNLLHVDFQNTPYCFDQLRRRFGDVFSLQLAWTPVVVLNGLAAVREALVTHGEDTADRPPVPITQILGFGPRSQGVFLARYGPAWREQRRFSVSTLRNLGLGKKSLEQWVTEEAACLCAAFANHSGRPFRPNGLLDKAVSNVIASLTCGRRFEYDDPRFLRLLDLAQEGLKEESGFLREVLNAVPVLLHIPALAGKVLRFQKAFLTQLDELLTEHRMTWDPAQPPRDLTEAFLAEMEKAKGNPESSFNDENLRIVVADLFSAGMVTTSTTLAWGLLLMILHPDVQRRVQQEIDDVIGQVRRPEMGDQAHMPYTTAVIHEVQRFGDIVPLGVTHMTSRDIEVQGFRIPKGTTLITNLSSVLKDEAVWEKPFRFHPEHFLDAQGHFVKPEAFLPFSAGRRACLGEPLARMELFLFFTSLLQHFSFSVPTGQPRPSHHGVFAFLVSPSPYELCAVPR
Chain of CYP3A4 (P08684 whole entry): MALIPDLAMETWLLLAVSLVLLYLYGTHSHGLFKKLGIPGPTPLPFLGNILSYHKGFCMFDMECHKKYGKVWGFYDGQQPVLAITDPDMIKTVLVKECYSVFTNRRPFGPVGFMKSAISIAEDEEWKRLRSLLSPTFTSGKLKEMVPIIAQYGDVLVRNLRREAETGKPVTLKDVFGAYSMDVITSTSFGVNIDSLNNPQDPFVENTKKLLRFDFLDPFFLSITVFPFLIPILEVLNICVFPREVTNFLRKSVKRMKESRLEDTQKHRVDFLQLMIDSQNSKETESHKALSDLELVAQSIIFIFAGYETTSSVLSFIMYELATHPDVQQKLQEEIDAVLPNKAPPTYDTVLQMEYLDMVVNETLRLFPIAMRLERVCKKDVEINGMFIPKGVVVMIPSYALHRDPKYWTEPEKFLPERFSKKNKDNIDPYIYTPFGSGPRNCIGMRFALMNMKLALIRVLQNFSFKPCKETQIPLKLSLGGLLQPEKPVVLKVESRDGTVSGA

Structure (SMILES)	inhibition of CYP2D6 (in words) (CYP2D6 [1])	IC50 (CYP2D6 [2]) [µM]	Ki (CYP2D6 [2]) [µM]	IC50 (CYP3A4) [µM]	Ki (CYP3A4) [µM]	inhibition of CYP3A4 (in words) (CYP3A4; HLM, as compared to ketoconazole)	Ki (CYP2C8) [µM]	inhibition of CYP2C8 (in words) (CYP2C8; HLM, remdesivir as compared to rosiglitazone)	IC50 (CYP2C8; remdesivir) [µM]	IC50 (CYP2C8; positive control) [µM]
CCC(CC)COC(=O)[C@H](C)N[P@](=O)(OC[C@H]1O[C@@](C#N)(c2ccc3c(N)ncnn23)[C@H](O)[C@@H]1O)Oc1ccccc1 [Remdesivir, remdesivir]	weak inhibition	0.543	0.271	0.483	0.241	moderate/weak inhibition	0.134	weak inhibition	0.268	–
CN(CCOc1ccc(CC2SC(=O)NC2=O)cc1)c1ccccn1 (centres unmarked) [Rosiglitazone, rosiglitazone]	–	–	–	–	–	–	1.6	–	–	3.28
